Results: US20250367302A1, “SMALL MOLECULE DRUG-OLIGONUCLEOTIDE CONJUGATE AND USE THEREOF” (SHANGHAI JIAO TONG UNIVERSITY, priority 2022, published 2025)

Columns and labels:
[1] = tested on: NFKBIZ mRNA; assay: NFKBIZ mRNA expression by RT-qPCR in LPS-stimulated HCECs; type: cell-based, human; conditions: LPS-stimulated (100 ng/mL) HCECs, 10 μM ASO or siRNA, without transfection reagent, 6 h + 48 h
Protocol: HCECs were inoculated in a 6-well plate at a density of 1×10^5 cells/well and cultured until adherence. The cells were then stimulated with 100 ng/mL lipopolysaccharide (LPS) overnight. After removing the supernatant, 1 mL of Opti-MEM medium containing ASONFKBIZ-h, ASONFKBIZ-h+Lipofectamine2000 (Lipo2000), and CsA-ASONFKBIZ-h (all containing 10 µM ASO) were added, respectively. Cells without any treatment were used as a blank reference (Mock). After incubation at 37° C. for 6 h, the cells were transferred into DMEM medium and incubated for another 48 h. The cells were collected and RNA was extracted for RT-qPCR to analyze the expression level of the NFKBIZ mRNA in HCECs, and experimental results were shown in FIG. 9. The expression level of NFKBIZ mRNA in HCECs after LPS stimulation was about 1.3 times that of normal cells. […] After adding CsA-ASONFKBIZ-h for co-incubation, the expression of NFKBIZ mRNA was reduced to about 0.8 times that of normal cells.
(§1) HCECs were inoculated in a 6-well plate at a density of 1×10^5 cells/well and cultured until adherence. The cells were then stimulated with 100 ng/mL LPS overnight. After removing the supernatant, 1 mL of Opti-MEM medium containing ASONFKBIZ-h+Lipo2000 complex and 2CsA-ASONFKBIZ-h nanomicelles (all containing 10 µM ASO) were added, respectively. After incubation at 37° C. for 6 h, the cells were transferred into DMEM medium and incubated for another 48 h. The cells were collected and RNA was extracted for RT-qPCR to analyze the expression level of the NFKBIZ mRNA in HCECs, and experimental results were shown in FIG. 12.
as §1, with “ng/ml” for “ng/mL”, “3CsA-ASONFKBIZ-h” for “2CsA-ASONFKBIZ-h”, “15.” for “12.”
HCECs were inoculated in a 6-well plate at a density of 1×10^5 cells/well and cultured until adherence. The cells were then stimulated with 100 ng/mL LPS overnight. 1 mL of Opti-MEM medium containing ASONFKBIZ-h+Lipo2000 complex and CsA3-ASONFKBIZ-h nanomicelles (all containing 10 µM ASO) were added, respectively. After incubation at […]. 37° C. for 6 h, the cells were transferred into DMEM medium and incubated for another 48 h. After collected and RNA was extracted for RT-qPCR to evaluate the expression level of NFKBIZ mRNA in HCECs, and the experimental results were shown in FIG. 23.
HCECs were inoculated in a 6-well plate at a density of 1×10^5 cells/well and cultured overnight until adherence. The cells were then stimulated with 100 ng/ml LPS for 12 h. After removing the supernatant, 1 mL of Opti-MEM medium containing siRNANFKBIZ-h+Lipo2000 complex and nCsA-siRNANFKBIZ-h (n=1, 2, 3) conjugates and nanomicelles (all containing 10 μM siRNA) were added, respectively. After incubation at 37° C. for 6 h, the cells were transferred into DMEM medium and incubated for another 48 h. The cells were collected and RNA was extracted for RT-qPCR to evaluate the expression of NFKBIZ mRNA in HCECs, and experimental results were shown in FIG. 27. […]

[2] = tested on: NFKBIZ mRNA; assay: NFKBIZ mRNA expression by RT-qPCR in IL-36-stimulated HaCaT cells; type: cell-based, human; conditions: IL-36-stimulated (100 ng/ml, 2 h) HaCaT cells, nanomicelles with 10 μM ASONFKBIZ-h, 6 h + 48 h
Protocol: HaCaT cells from human keratinocyte cell line were inoculated in a 6-well plate at a density of 1×10^5 cells/well and cultured until adherence. The cells were then stimulated with 100 ng/ml interleukin-36 (IL-36) for 2 h. After washing with 1×PBS buffer, 1 mL of Opti-MEM medium containing ASONFKBIZ-h+Lipo2000 complex and CsA3-ASONFKBIZ-h nanomicelles (all containing 10 μM ASONFKBIZ-h) were added, respectively. After incubation with HaCaT cells for 6 h, the cells were transferred into fresh DMEM medium, while cells without any treatment or stimulated with IL-36 alone were used as a control, all cells were incubated at 37° C. for 48 h. The cells were collected and RNA was extracted for RT-qPCR to analyze the expression level of the NFKBIZ mRNA in HaCaT cells, and experimental results were shown in FIG. 51.
HaCaT cells from human keratinocyte cell line were inoculated in a 6-well plate at a density of 1×10^5 cells/well and cultured until adherence. The cells were then stimulated with 100 ng/ml interleukin-36 (IL-36) for 2 h. After washing with 1×PBS buffer, 1 mL of Opti-MEM medium containing ASONFKBIZ-h+Lipo2000 complex and 10TA-ASONFKBIZ-h nanomicelles (all containing 10 μM ASONFKBIZ-h) were added, respectively. […]

Substance: CsA3-ASONFKBIZ-h: CsA trimer on tripropargyl linker at 3′ end of ASO targeting human NFKBIZ (SEQ ID NO: 7) (ATCAGACAACGAATCGGGC; 3'-NHS ASO with tripropargyl linker carrying three cyclosporin A, chemistry not given here, further chemistry not given here)
- expression of NFKBIZ mRNA relative to normal cells [1]: about 0.5 times that of normal cells
- NFKBIZ mRNA expression relative to normal cells [2]: about 0.8 times
